Results on one compound are retold here after US8541411B2, “Benzimidazole derivatives as PI3 kinase inhibitors” (GlaxoSmithKline LLC, priority 2010, dated 2013).

The subject of one assay is BT549. The experiment in a line: Anchorage Independent Soft Agar Tumor Growth Assay, BT549. It counts as cell-based. As to conditions: percent of DMSO-treated control at Ymin plateau.
The next assay has as its system WM-115. The experiment in a line: Anchorage Independent Soft Agar Tumor Growth Assay, WM-115. Format: cell-based. As to conditions: percent of DMSO-treated control at Ymin plateau. The procedure: (§1) Twenty-two Phosphatase and Tensin Homolog (PTEN) wild-type or PTEN deficient tumor cell lines were cultured generally according to instructions supplied by cell culture supplier American Type Culture Collection, Manassas, Va., with 10% fetal bovine serum at 5% CO2 and 37° C. Cells were seeded into either a T-75 or a T-175 flask 3-4 days prior to 96-well assay plating such that the flasks were approximately 70-80% confluent of the time of harvest. Cells were harvested using 0.25% trypsin-EDTA (Invitrogen #25200056). Trypan Blue exclusion staining was used to determine cell number. Viable cells were plated in clear, flat bottom 96-well plates (BD #353075) under anchorage independent conditions at 2,000-10,000 cells per well depending on the cell line. To generate anchorage independent growth conditions, a 5% agar stock solution in water was made and autoclaved to melt and sterilize. […] The next day one plate of cells was processed at the time of compound addition to quantify the starting number of cells (T=0 or T0). […] Following the 6-day incubation, 20 μl of Alamar Blue (Invitrogen #DAL1100) was added to the cells, incubated at 5% CO2 and 37° C. for 6 hours and the plates read on a Spectramax (Gemini EM) at 530 nm (excitation) and 590 nm (emission) with the auto cut-off disabled. […]

For another assay, the system named is C32. The experiment in a line: Anchorage Independent Soft Agar Tumor Growth Assay, C32. It counts as cell-based. As to conditions: percent of DMSO-treated control at Ymin plateau. The procedure: as §1
For a further assay, the system named is SW1783. Nature of the assay: Anchorage Independent Soft Agar Tumor Growth Assay, SW1783. Particulars: percent of DMSO-treated control at Ymin plateau. It counts as cell-based. The procedure: as §1
The subject of another assay is UM-UC-3. The experiment in a line: Anchorage Independent Soft Agar Tumor Growth Assay, UM-UC-3. It counts as cell-based. As to conditions: percent of DMSO-treated control at Ymin plateau. The procedure: as §1
A further assay concerns SW1088. The experiment in a line: Anchorage Independent Soft Agar Tumor Growth Assay, SW1088. It counts as cell-based. Particulars: percent of DMSO-treated control at Ymin plateau. How it is done: as §1
For the next assay, the system named is H4. Nature of the assay: Anchorage Independent Soft Agar Tumor Growth Assay, H4. Format: cell-based. Particulars: percent of DMSO-treated control at Ymin plateau. How it is done:
as §1

The next assay deals with CHL-1. The experiment in a line: Anchorage Independent Soft Agar Tumor Growth Assay, CHL-1. It counts as cell-based. Particulars: percent of DMSO-treated control at Ymin plateau. The procedure: as §1
A further assay has as its system UACC-62. Nature of the assay: Anchorage Independent Soft Agar Tumor Growth Assay, UACC-62. Format: cell-based. Particulars: percent of DMSO-treated control at Ymin plateau. The procedure: as §1
The next assay deals with HCC19377. The experiment in a line: Anchorage Independent Soft Agar Tumor Growth Assay, HCC19377. Format: cell-based. Particulars: percent of DMSO-treated control at Ymin plateau. The procedure:
as §1

The next assay deals with PC-3. Nature of the assay: Anchorage Independent Soft Agar Tumor Growth Assay, PC-3. Format: cell-based, human. Particulars: percent of DMSO-treated control at Ymin plateau. How it is done:
as §1

The subject of another assay is HCC70. Nature of the assay: Anchorage Independent Soft Agar Tumor Growth Assay, HCC70. It counts as cell-based. As to conditions: percent of DMSO-treated control at Ymin plateau. How it is done:
as §1

For a further assay, the system named is MDA-MB-468. Nature of the assay: Anchorage Independent Soft Agar Tumor Growth Assay, MDA-MB-468. It counts as cell-based. Particulars: percent of DMSO-treated control at Ymin plateau. The procedure: as §1
The next assay concerns HCC1395. Nature of the assay: Anchorage Independent Soft Agar Tumor Growth Assay, HCC1395. Format: cell-based. Particulars: percent of DMSO-treated control at Ymin plateau. The procedure:
as §1

Another assay concerns U-87MG. The experiment in a line: Anchorage Independent Soft Agar Tumor Growth Assay, U-87MG. It counts as cell-based. Particulars: percent of DMSO-treated control at Ymin plateau. How it is done:
as §1

Another assay has as its system BT474. The experiment in a line: Anchorage Independent Soft Agar Tumor Growth Assay, BT474. Format: cell-based. As to conditions: percent of DMSO-treated control at Ymin plateau. How it is done: as §1
Another assay deals with U251. Nature of the assay: Anchorage Independent Soft Agar Tumor Growth Assay, U251. Format: cell-based. As to conditions: percent of DMSO-treated control at Ymin plateau. How it is done:
as §1

The next assay has as its system HCC1954. The experiment in a line: Anchorage Independent Soft Agar Tumor Growth Assay, HCC1954. Particulars: percent of DMSO-treated control at Ymin plateau. It counts as cell-based. How it is done: as §1
A further assay concerns Colo205. The experiment in a line: Anchorage Independent Soft Agar Tumor Growth Assay, Colo205. It counts as cell-based. As to conditions: percent of DMSO-treated control at Ymin plateau. The procedure:
as §1

The subject of the next assay is HCT-116. Nature of the assay: Anchorage Independent Soft Agar Tumor Growth Assay, HCT-116. Format: cell-based. Particulars: percent of DMSO-treated control at Ymin plateau. The procedure: as §1
In another assay the test system is SKOV-3. The experiment in a line: Anchorage Independent Soft Agar Tumor Growth Assay, SKOV-3. It counts as cell-based. Particulars: percent of DMSO-treated control at Ymin plateau. The procedure: as §1
The next assay deals with LOXIMVI. The experiment in a line: Anchorage Independent Soft Agar Tumor Growth Assay, LOXIMVI. As to conditions: percent of DMSO-treated control at Ymin plateau. Format: cell-based. The procedure: as §1
In another assay the test system is pAKT (pAKT/tAKT). The experiment in a line: Pharmacodynamic effects, pAKT in PC-3 xenograft tumors. Format: in vivo, mouse. Particulars: mice given 3 mg/kg or 10 mg/kg, 1-24 hours. The procedure:
Female nude mice (Charles River Laboratories, Wilmington, Del.; strain CD-1-Foxn1, 6 weeks of age) were injected subcutaneously with 2 million PC-3 (human prostate carcinoma) cells mixed 1:1 with Matrigel in the flank. Tumors were allowed to grow for approximately 5 weeks. […] The tumor was excised. Half of each tumor was immediately processed by Medicon (BD Catalog #340592) in 1 mL Meso-Scale Discovery (MSD) lysis buffer with protease inhibitors (Roche complete protease cocktail, cat#04 693 116 001) and phosphatase inhibitors (Sigma, cat #P2850 and P-5726) for 30-60 seconds and transferred to 1.5 mL Eppendorf tubes. Tubes remained on wet ice until they were centrifuged for 10 minutes at 4° C. at maximum speed in a tabletop refrigerated centrifuge. Tumor lysates were serially diluted in 96-well polypropylene plates on wet ice. Lysates (150 μL) were loaded in row 1; rows 2-12 were loaded with 75 μL of complete Meso Scale Discovery (MSD) lysis buffer (supplied in MSD kit; #[…]-3). Samples were serially diluted 2-fold across the plate by sequential transfer of 75 μL through well 11; row 12 contained lysis buffer only. […] Plates were washed as described above, before the addition of 150 μL of MSD read buffer and read immediately on a 6000 MSD plate reader. […] P/T AKT was calculated as shown: (phospho AKT(Ser473) signal)/[(phospho AKT(Ser473) signal)+(total AKT signal)]. […]

Bounds are passed on as bounds.

Protocol for BT549: Cells were seeded into either a T-75 or a T-175 flask 3-4 days prior to 96-well assay plating such that the flasks were approximately 70-80% confluent of the time of harvest. Cells were harvested using 0.25% trypsin-EDTA (Invitrogen #25200056). Trypan Blue exclusion staining was used to determine cell number. Viable cells were plated in clear, flat bottom 96-well plates (BD #353075) under anchorage independent conditions at 2,000-10,000 cells per well depending on the cell line. To generate anchorage independent growth conditions, a 5% agar stock solution in water was made and autoclaved to melt and sterilize. From the 5% agar solution, a 0.6% agar/media+10% fetal bovine serum (FBS) solution was made to generate a bottom agar layer in the plates to prevent cell attachment. Seventy five microliters per well of the 0.6% agar-media solution was added to the plates. […] The next day one plate of cells was processed at the time of compound addition to quantify the starting number of cells (T=0 or T0). […] Following the 6-day incubation, 20 μl of Alamar Blue (Invitrogen #DAL1100) was added to the cells, incubated at 5% CO2 and 37° C. for 6 hours and the plates read on a Spectramax (Gemini EM) at 530 nm (excitation) and 590 nm (emission) with the auto cut-off disabled. […]

As to `Cc1c(Cn2c(C)nc3c(C(=O)O)cc(N4CCOCC4)cc32)cccc1C(F)(F)F` [Example 31, 2-methyl-1-{[2-methyl-3-(trifluoromethyl)phenyl]methyl}-6-(4-morpholinyl)-1H-benzimidazole-4-carboxylic acid], the “Ymin ± StDev” value in the assay with BT549 came out at 52 ± 7; in the assay on WM-115, 54 ± 14; in the assay on C32 it was 20 ± 14; in the assay on SW1783 it was 69 ± 4; in the assay with UM-UC-3 it was 83 ± 29; in the assay with SW1088 it was 36 ± 8. Besides, the “Ymin ± StDev” value was found to be 55 ± 18 in the assay on H4; 82 ± 2 with CHL-1; 76 ± 18 in the assay on UACC-62; 67 ± 8 in the assay on HCC19377; 82 ± 13 with PC-3; 27 ± 8 in the assay on HCC70. Also, the “Ymin ± StDev” value in the assay on MDA-MB-468 is reported as 44 ± 6; in the assay on HCC1395 it was 26 ± 9; with U-87MG it was 34 ± 18; with BT474 it was 75 ± 3; in the assay on U251 it was 80 ± 17; in the assay with HCC1954, above 80. The “Ymin ± StDev” value in the assay with Colo205 is given as above 80; in the assay on HCT-116, above 80; in the assay with SKOV-3 it was above 80; with LOXIMVI, above 90. In addition, in the assay on pAKT (pAKT/tAKT), the “inhibition of the pharmacodynamic marker pAKT (pAKT/tAKT)” value is listed as “dose dependent inhibition”.
